Measured values as given in PubChem BioAssay (NCI).
Where “and” joins values, the source holds several entries; their conditions need not be identical. Equal values may be shown once.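 These data come from cells grown in 96-well plates and exposed to compound for 48 hours at five concentrations. Abbreviation: GI50, concentration required for 50% inhibition of growth. The concentration for full growth arrest is given as TGI.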 Numbered stars: 1 amine (or outer) side, 2 acyl side, 3 side chain; on linkers, the order of the positions; unused ones are H or OH. Bridge positions count the residues as written; N and C are the ends. Square brackets hold non-standard residues; d marks the D form. Peptide text beside a SMILES is read from it. I, II: the chains in the order shown. Actinocin(1to9) = Cc1c2oc3c(C)ccc(C(=O)[*:2])c3nc-2c(C(=O)[*:1])c(N)c1=O; NMeY = CN[CH](Cc1ccc(O)cc1)C(=O)O; Sar = CNCC(=O)O

Experiments:
Experiment in all cases: NCI-60 cell line screen, 48 h
EKVX NSCLC = tested on: EKVX NSCLC
NCI-H460 lung = tested on: NCI-H460 lung
SF-268 CNS = tested on: SF-268 CNS
NCI-H23 lung = tested on: NCI-H23 lung
ACHN renal = tested on: ACHN renal
A498 renal = tested on: A498 renal
UACC-257 melanoma = tested on: UACC-257 melanoma
HCT-116 colon = tested on: HCT-116 colon
OVCAR-4 ovarian = tested on: OVCAR-4 ovarian
RXF 393 renal = tested on: RXF 393 renal

SMILES	TGI (EKVX NSCLC)	TGI (NCI-H460 lung)	TGI (SF-268 CNS)	TGI (NCI-H23 lung)	TGI (ACHN renal)	TGI (A498 renal)	TGI (UACC-257 melanoma)	TGI (HCT-116 colon)	TGI (OVCAR-4 ovarian)	GI50 (EKVX NSCLC)	GI50 (NCI-H460 lung)	GI50 (SF-268 CNS)	GI50 (NCI-H23 lung)	GI50 (UACC-257 melanoma)	GI50 (OVCAR-4 ovarian)	GI50 (A498 renal)	TGI (RXF 393 renal)	GI50 (RXF 393 renal)	GI50 (ACHN renal)	GI50 (HCT-116 colon)
COc1ccc2c(c1)CCc1c-2n[nH]c1-c1[nH]nc2c1CCc1cc(OC)ccc1-2	> 100 µM	> 100 µM	> 100 µM	> 100 µM	> 100 µM	> 100 µM	> 100 µM	> 100 µM												
COCCNc1cncc(C(N)=O)c1	> 100 µM	> 100 µM	> 100 µM	> 100 µM	> 100 µM	> 100 µM	> 100 µM	> 100 µM	> 100 µM											
CCOC(=O)C1=C(C)NC(c2ccco2)=C(C#N)C1c1cccc([N+](=O)[O-])c1 (stereo not drawn)	88.6 µM	0.432 µM	41.4 µM	0.0947 µM	45.7 µM		26.2 µM	4.17 µM	74.8 µM	0.0263 µM	0.0633 µM	0.0783 µM	0.0251 µM	0.0882 µM	4.53 µM					
CC(=O)NN1C(=O)C(Cc2ccccc2)c2ccccc21 (stereo not drawn)	> 100 µM	> 100 µM	> 100 µM	> 100 µM	> 100 µM	> 100 µM	> 100 µM	> 100 µM	> 100 µM											
COc1cc(/C=C2\CCCC3=C2N=C2SC(C)=NN2C3c2cc(OC)c(OC)c(OC)c2)cc(OC)c1OC (stereo not drawn)						> 100 µM	> 100 µM							> 100 µM		0.153 µM				
CCCCN(CCCC)CC(C(C)=O)C(c1ccccc1)c1c(O)c2ccccc2oc1=O (stereo not drawn)	> 100 µM	> 100 µM	> 100 µM	> 100 µM	> 100 µM		> 100 µM	> 100 µM	> 100 µM								> 100 µM			
O=C1NC(c2ccccc2)C2(C(=O)O)CN(C3CC3)c3cc(N4CCNCC4)c(F)cc3C2N1 (stereo not drawn)	> 100 µM	> 100 µM	> 100 µM	> 100 µM	> 100 µM		> 100 µM	> 100 µM	> 100 µM	> 100 µM	> 100 µM	> 100 µM	> 100 µM	> 100 µM	> 100 µM		> 100 µM	> 100 µM	> 100 µM	> 100 µM
COC(C)C(O)(C(=O)OCC1=CCN2CCC(O)C12)C(C)(C)O (stereo not drawn)	> 100 µM	> 100 µM	> 100 µM	> 100 µM	> 100 µM	> 100 µM	> 100 µM	> 100 µM	> 100 µM											
CN(N)c1nc(N)c(C#N)c(C#N)c1C#N			> 10 µM	> 10 µM	> 10 µM		> 10 µM	> 10 µM	> 10 µM											
COc1ccc2nc3cc(Cl)ccc3c(Nc3cc(CN4CCCC4)c(O)c(CN4CCCC4)c3)c2n1	9.68 µM	2.49 µM	3.55 µM	3.88 µM	10.3 µM		3.26 µM	5.83 µM	4.72 µM	2.34 µM	0.638 µM	1.28 µM	1.72 µM	1.71 µM	1.12 µM		3.05 µM	1.25 µM	1.69 µM	1.04 µM
NC(Cc1ccccc1)c1nccs1 (stereo not drawn)	> 100 µM		> 100 µM	> 100 µM	> 100 µM	> 100 µM	> 100 µM	> 100 µM	> 100 µM											
COC(=O)N[C@H]1CCc2c(Cl)c(OC)c(OC)c(OC)c2-c2ccc(SC)c(=O)cc21	96.9 µM	1.05 µM	> 100 µM	37 µM	38.1 µM	< 0.01 µM	> 100 µM		> 100 µM	< 0.01 µM	< 0.01 µM	< 0.01 µM	< 0.01 µM	24.9 µM	0.0813 µM	< 0.01 µM			< 0.01 µM	< 0.01 µM
CC(=O)[O-].N.N.N.N.[Co+3].[O-][Cl+3]([O-])([O-])[O-].[OH3+]	> 100 µM	> 100 µM	> 100 µM	> 100 µM	> 100 µM	> 100 µM	> 100 µM	> 100 µM	> 100 µM	> 100 µM	> 100 µM	> 100 µM	> 100 µM	> 100 µM	> 100 µM	> 100 µM			> 100 µM	> 100 µM
COC(=O)[C@H](Cc1cn(C)cn1)NC(=O)[C@H](Cc1ccccc1)NC(=O)Nc1cc(C(F)(F)F)cc(C(F)(F)F)c1		29.7 µM	23.8 µM	33 µM	33.4 µM	30.1 µM	30.1 µM	10.9 µM	28.5 µM		14.2 µM	4.26 µM and 10.2 µM	17.4 µM	16.1 µM	13.8 µM	15.8 µM			17.2 µM	3.1 µM and 3.54 µM
COc1ccc(CC2C(=O)OC(C)C(NC(=O)c3c4nc5c(C(=O)NC6C(=O)NC(C(C)C)C(=O)N7CCCC7C(=O)N(C)CC(=O)N(C)C(Cc7ccc(OC)cc7)C(=O)OC6C)ccc(C)c5oc-4c(C)c(=O)c3N)C(=O)NC(C(C)C)C(=O)N3CCCC3C(=O)N(C)CC(=O)N2C)cc1 (stereo not drawn) (I: TVP[Sar][NMeY](Me) / II: TVP[Sar][NMeY](Me); ester I:1-I:C, II:1-II:C; linker I:N-II:N via Actinocin(1to9); configuration not given here)	0.0734 µM and > 0.617 µM	< 0.01 µM			> 0.591 µM			1.12 µM and > 1 µM	< 0.01 µM	< 0.01 µM and 0.0696 µM	< 0.01 µM	< 0.01 µM and 0.00484 µM						< 0.01 µM and 0.0306 µM		< 0.01 µM and 0.00298 µM
CC(=O)[CH-]C(=O)c1ccccc1.CC(=O)[CH-]C(=O)c1ccccc1.[O-]c1ccc2c(c1)OCO2.[O-]c1ccc2c(c1)OCO2.[Ti+4]	72.9 µM	72.6 µM	> 100 µM	64.4 µM	> 100 µM	64.8 µM	> 100 µM	> 100 µM	> 100 µM	25.8 µM	21.1 µM	33.6 µM	22.4 µM	44 µM	31.8 µM	32.7 µM			31.6 µM	37 µM
CC[C@H](C)[C@H](NC(=O)c1cccn1C)C(=O)N(C)[C@H](C[C@@H](OC(C)=O)c1nc(C(=O)N[C@@H](Cc2ccccc2)C[C@H](C)C(=O)OC)cs1)C(C)C	> 33.3 µM	> 14.4 µM	> 33.3 µM	> 33.3 µM	> 33.3 µM	7.06 µM	> 33.3 µM	> 11.3 µM	> 33.3 µM	0.543 µM	0.123 µM	0.351 µM	0.216 µM	18.2 µM	0.68 µM	0.0722 µM			0.502 µM	0.127 µM
C1=CCCC=CCC1.C[PH+](C)C.C[PH+](C)C.C[PH+](C)C.[Cl-].[Ir]	> 100 µM	> 100 µM		> 100 µM	> 100 µM		59.1 µM	> 100 µM	> 100 µM	76.1 µM	77.9 µM		> 100 µM	23.2 µM	67.8 µM		> 100 µM	> 100 µM	> 100 µM	42.9 µM
COc1c(N2CCN(CN3C(=O)C(=Nc4ccc(S(=O)(=O)Nc5ncccn5)cc4)c4cc(Cl)ccc43)C(C)C2)c(F)cc2c(=O)c(C(=O)O)cn(C3CC3)c12 (stereo not drawn)	> 50 µM	46 µM	> 50 µM	18.4 µM	> 50 µM		17.7 µM	21.7 µM		18.9 µM	10.9 µM	12.1 µM	8.22 µM	6.77 µM			> 50 µM	8.3 µM	11.8 µM	9.19 µM
COc1ccc2c(c1)CN1CCc3c(cc(OC)c(OC)c3OC)C1C2 (stereo not drawn)	> 100 µM		> 100 µM	> 100 µM	> 100 µM		> 100 µM	> 100 µM	> 100 µM								> 100 µM			
CCCCn1c(=O)c(/C=C/C(=O)/C=C/c2cc3ccccc3n(CCCC)c2=O)cc2ccccc21	4.42 µM	3.49 µM	5.17 µM		3.07 µM		3 µM		9.12 µM	1.88 µM	1.8 µM	1.98 µM		1.61 µM	2.78 µM		3.32 µM	1.8 µM	1.7 µM	
CC[PH+](CC)CC.[Cl][Au]	2.91 µM	47.9 µM	3.35 µM	3.42 µM	3.32 µM		2.36 µM	3.59 µM	2.97 µM	1.42 µM	16.2 µM	1.51 µM	1.68 µM	1.09 µM	1.47 µM		1.66 µM	0.447 µM	1.61 µM	1.84 µM
COc1cc2cnc3c4cc(OCc5ccccc5)ccc4ccc3c2cc1OC	> 100 µM	> 100 µM	> 100 µM	75.7 µM	> 100 µM		> 100 µM	> 100 µM	39.8 µM								47.6 µM			
CC1=CCCC2C(C=O)(C1)CC(C)C2(CO)CC/C(=C/CO)CO (stereo not drawn)	> 100 µM	> 100 µM		> 100 µM	> 100 µM	> 100 µM	> 100 µM	> 100 µM									> 100 µM			
